Assay results taken from patent publication US20240016788A1, “PHARMACEUTICAL COMPOSITION FOR PREVENTING OR TREATING DIABETIC AND POSTMENOPAUSAL OSTEOPOROSIS, CONTAINING ADIPORON” (PnP Biopharm Co., Ltd., priority 2020, published 2024).

System: ovariectomized C57BL/6 mice
Assay: Growth plate staining (trichrome, Safranin O) of ilium, ovariectomized mice
Type: in vivo
Settings: 6 weeks
Procedure: 7 weeks after ovariectomization or sham surgery of 7-week-old C57BL/6 mice, normal feed group (adiporon non-administered group; control group) administration group, 2.5 mg/kg day or 25 mg/kg day, respectively Feed comprising adiporon was consumed for 6 weeks from 14 weeks of age. Body weight was measured every week during the experiment period, and the experiment was conducted after 6 weeks of administration. […] Thereafter, after neutralization with 0.5M Phosphate buffer (pH 7.4), washing, and embedding in paraffin. Tissue sections were cut to a thickness of 5 μm, and hematoxylin and eosin staining (H&E staining), trichrome staining, and Safranin O staining were performed. In bone tissue, double immunofluorescence staining method was performed using anti-adiponectin receptor 1/2 antibody, anti-perilipin-1 antibody, anti-RANKL antibody, anti-TNF-α antibody, and ApopTag Fluorescein In Situ Apoptosis Detection Kit (Chemicon International, Temecula, CA) and expression was observed using a confocal microscope.

With `Cl.O=C(COc1ccc(C(=O)c2ccccc2)cc1)NC1CCN(Cc2ccccc2)CC1` [adiporon] the “Decreased thickness of the iliac growth plate” value (adiporon 2.5 mg/kg day) was “increased” and the “Decreased thickness of the iliac growth plate” value (adiporon 25 mg/kg day) was “increased”.
